Experiments:
Assay in all cases: relative viability (nuclei count vs DMSO), 5 days (fraction); higher = more cells survive
[1] = compound: C1=CC=C(C(=C1)C2=CC=C(C=C2)C3=CSC4=C3C(=C(C(=O)N4)C#N)O)O
Outline: (§1)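 Viability here means nuclei in treated wells divided by nuclei in vehicle wells, reported as the median across plates. Only plates with control CV below 25% and at least one doubling passed. Lung cancer cell lines in 1536-well plates were exposed to five √10-spaced library-drug doses for 5 days and counted from 4× Hoechst images in MetaXpress.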

[2] = compound: CC1=CN2C(=O)C=C(N=C2C(=C1)C(C)NC3=CC=CC=C3)N4CCOCC4 [TGX 221]
Outline: as §1

[3] = compound: O=C(CCCCCCNC(=O)c1cnc(N(c2ccccc2)c2ccccc2)nc1)NO [Ricolinostat]
Outline: as §1

[4] = compound: CC1=CN2C(=O)C=C(N=C2C(=C1)C(C)NC3=CC=CC=C3)N4CCOCC4 [TGX 221] + C[C@@H](Oc1cc(-c2cnn(C3CCNCC3)c2)cnc1N)c1c(Cl)ccc(F)c1Cl [Crizotinib] (partner 1 µM)
Outline: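 Five library-drug doses in √10 steps were combined with a fixed anchor-drug dose, or a single drug was given alone, by pin tool to lung cancer cell lines in 1536-well plates the day after seeding. Nuclei were stained and counted after 5 days. Relative viability is the nuclei count in treated wells over that in vehicle wells, taken as the median of duplicate plates.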

A-427
relative viability ([1]; 0.08 µM): 0.913 | relative viability ([1]; 0.253 µM): 1.02 | relative viability ([1]; 0.8 µM): 1.05 | relative viability ([1]; 2.53 µM): 1.04 | relative viability ([1]; 8 µM): 1 | relative viability ([2]; 0.08 µM): 0.949 | relative viability ([2]; 0.253 µM): 0.91 | relative viability ([2]; 0.8 µM): 0.971 | relative viability ([2]; 2.53 µM): 0.893 | relative viability ([2]; 8 µM): 1 | relative viability ([3]; 0.08 µM): 0.714 | relative viability ([3]; 0.253 µM): 1.01 | relative viability ([3]; 0.8 µM): 0.908 | relative viability ([3]; 2.53 µM): 0.849 | relative viability ([4]; first compound 0.08 µM): 0.958 | relative viability ([4]; first compound 0.253 µM): 0.924 | relative viability ([4]; first compound 0.8 µM): 0.879 | relative viability ([4]; first compound 2.53 µM): 0.776 | relative viability ([4]; first compound 8 µM): 0.824

NCI-H2228
relative viability ([1]; 0.08 µM): 1.08 | relative viability ([1]; 0.253 µM): 1.1 | relative viability ([1]; 0.8 µM): 1.19 | relative viability ([1]; 2.53 µM): 1.07 | relative viability ([1]; 8 µM): 0.782 | relative viability ([2]; 0.08 µM): 0.831 | relative viability ([2]; 0.253 µM): 0.97 | relative viability ([2]; 0.8 µM): 1.04 | relative viability ([2]; 2.53 µM): 0.846 | relative viability ([2]; 8 µM): 0.996 | relative viability ([3]; 0.08 µM): 0.99 | relative viability ([3]; 0.253 µM): 0.981 | relative viability ([3]; 0.8 µM): 0.944 | relative viability ([3]; 2.53 µM): 0.921 | relative viability ([4]; first compound 0.08 µM): 0.399 | relative viability ([4]; first compound 0.253 µM): 0.288 | relative viability ([4]; first compound 0.8 µM): 0.354 | relative viability ([4]; first compound 2.53 µM): 0.327 | relative viability ([4]; first compound 8 µM): 0.384

NCI-H522
relative viability ([1]; 0.08 µM): 0.889 | relative viability ([1]; 0.253 µM): 0.962 | relative viability ([1]; 0.8 µM): 1.13 | relative viability ([1]; 2.53 µM): 0.966 | relative viability ([1]; 8 µM): 0.966 | relative viability ([2]; 0.08 µM): 0.909 | relative viability ([2]; 0.253 µM): 0.795 | relative viability ([2]; 0.8 µM): 1.17 | relative viability ([2]; 2.53 µM): 0.927 | relative viability ([2]; 8 µM): 1.01 | relative viability ([3]; 0.08 µM): 0.997 | relative viability ([3]; 0.253 µM): 0.996 | relative viability ([3]; 0.8 µM): 0.928 | relative viability ([3]; 2.53 µM): 0.915

NCI-H1395
relative viability ([1]; 0.253 µM): 0.925 | relative viability ([1]; 0.8 µM): 0.837 | relative viability ([1]; 2.53 µM): 0.944 | relative viability ([1]; 8 µM): 0.888 | relative viability ([2]; 0.08 µM): 0.787 | relative viability ([2]; 0.253 µM): 0.801 | relative viability ([2]; 0.8 µM): 0.838 | relative viability ([2]; 2.53 µM): 0.664 | relative viability ([2]; 8 µM): 0.703 | relative viability ([3]; 0.253 µM): 0.922 | relative viability ([3]; 0.8 µM): 0.746 | relative viability ([3]; 2.53 µM): 0.833

SW 900
relative viability ([1]; 0.08 µM): 0.81 | relative viability ([1]; 0.253 µM): 1.22 | relative viability ([1]; 0.8 µM): 0.809 | relative viability ([1]; 2.53 µM): 0.773 | relative viability ([1]; 8 µM): 0.56 | relative viability ([2]; 0.08 µM): 0.839 | relative viability ([2]; 0.253 µM): 0.938 | relative viability ([2]; 0.8 µM): 0.742 | relative viability ([2]; 2.53 µM): 0.608 | relative viability ([2]; 8 µM): 0.601 | relative viability ([3]; 0.08 µM): 0.591 | relative viability ([3]; 0.253 µM): 0.832 | relative viability ([3]; 0.8 µM): 0.647 | relative viability ([3]; 2.53 µM): 0.74
